According to patent US12054449B2, “Phenylcarbamate crystalline form and method for manufacturing the same” (BIO-PHARM SOLUTIONS CO., LTD., priority 2021, dated 2024):
Converted amounts (≈) assume the structure as drawn. “Also recorded” adds a separate entry of the source. Like-named read-outs stand apart in the source and are kept apart here.

Columns and labels:
Format in all cases: physicochemical
[1] = Change of crystalline form on standing or drying (XRPD); details: left overnight on the XRPD disc under laboratory conditions
Method: XRPD patterns were detected by CuKα irradiation (30 kV, 10 mA) using a Bruker AXS D2 diffractometer. The analysis was performed using θ-θ geometry and a LynxEye detector at 5 to 42° 2θ with a step size of 0.024° 2θ at 0.1 sec/step.
Samples were run at ambient conditions and prepared as flat specimens using powder received without grinding. About 1 to 2 mg of the sample was lightly pressed on a silicon wafer to obtain a flat surface.

[2] = Log D (shake flask at pH 5) and Log P
[3] = Gravimetric vapor sorption (GVS)
Method: Sorption isotherms were obtained using an SMS DVS intrinsic water absorption analyzer controlled by SMS Analysis Suite software. A sample temperature was maintained at 25° C. throughout. Humidity was controlled by a mixed stream of dry and wet nitrogen with a total flow rate of 200 mL/min. The relative humidity was measured with a calibrated Rotronic probe (dynamic range: 1.0-100% RH) located near the sample. The weight change (mass relaxation) of the sample as a function of % RH was continuously monitored using a microbalance (accuracy±0.005 mg). 5 to 20 mg of the sample was stored in a prepared stainless steel mesh basket under atmospheric conditions.

[4] = Polymorphic screening with solvents and solvent/antisolvent
[5] = Thermodynamic solubility by UPLC in biological media (FaSSGF, FaSSIF); details: thermodynamic from solid, 37° C., 24 h orbital shaker, all solids dissolved
Method: A thermodynamic solubility in water was determined by providing a suitable concentration of compound prepared by suspending a sufficient compound in water or buffer according to estimated solubilities of the medium and the compound. Quantification was done by UPLC with reference to a standard calibration curve. A solubility was calculated with QuanLynx using a peak area determined by the integration of a peak found at the same retention time as the main peak in the standard injection.
To measure the solubility of ED01748-006-001-00 Pattern 1, experiments were carried out in biological media (Fasted simulated gastric fluid (FaSSGF) and Fasted simulated intestinal fluid (FaSSIF)) at 37° C. […] each of samples was dispersed into each of four vials, 1 mL each of FaSSGF and FaSSIF was added to each of the two vials and incubated in an orbital shaker for 24 hours. After incubation, all solids in each sample were dissolved, and the solubility was measured as follows.

[6] = Storage under stress humidity (40° C./75% RH or RT/97% RH, 7 days) with XRPD, UPLC, 1H NMR
[7] = Competitive slurry experiment for Pattern 1, Pattern 3, Pattern 6 and Pattern 11
Method: A mixture of Pattern 1 and Pattern 3 (ED01748-028-003-00, 10 mg each) was dispensed into four vials, and Pattern 6 (ED01748-034-002-00, 5 mg) and Pattern 11 (ED01748-037-002-00, 5 mg) were added to respective vials. Each sample was treated with 300 μL of a filtered saturated solution of Pattern 1 (ED01748-006-001-00) prepared in DIPE or heptane. The resulting slurries were stirred at room temperature and 50° C. A small sample was periodically removed and analyzed by)(RFD, followed by monitoring as described in the following table.
After analysis, the solid was returned to the vial, and a saturated solution was additionally injected as needed to maintain the slurries. After 25 days, the purity of the solid material obtained in the heptane experiment was confirmed by UPLC, and no significant decrease in purity was shown by UPLC.

- Form by XRPD after being left overnight [1]: Pattern 3
- logP [2]: 1.32
- logD ([2]; shake flask): 1.32
- GVS mass increase ([3]; second sorption cycle, 0-90% RH, 25° C., listed as Pattern 1): 0.14%
- Result ([4]; Exp. 1, 2-propanol 60 ul / Toluene 100 ul, Shaken RT, refrigerated): Soluble
- Initial result ([4]; Exp. 1, solvent 2-propanol 60 ul, anti-solvent Toluene 100 ul): Soluble
- Result ([4]; Exp. 2, 2-propanol 60 ul / Heptane 200 ul, Shaken RT, refrigerated): Soluble
- Initial result ([4]; Exp. 2, solvent 2-propanol 60 ul, anti-solvent Heptane 200 ul): Soluble
- Result ([4]; Exp. 3, 2-propanol 60 ul / Diethyl ether 100 ul, Shaken RT, refrigerated): Soluble
- Initial result ([4]; Exp. 3, solvent 2-propanol 60 ul, anti-solvent Diethyl ether 100 ul): Soluble
- Result ([4]; Exp. 4, 2-propanol 60 ul / TBME 200 ul, Shaken RT, refrigerated): Soluble
- Initial result ([4]; Exp. 4, solvent 2-propanol 60 ul, anti-solvent TBME 200 ul): Soluble
- Result ([4]; Exp. 5, acetone 60 ul / Toluene 100 ul, Shaken RT, refrigerated): Soluble
- Initial result ([4]; Exp. 5, solvent acetone 60 ul, anti-solvent Toluene 100 ul): Soluble
- Result ([4]; Exp. 6, acetone 60 ul / Heptane 175 ul, notes: oil): oil
- Initial result ([4]; Exp. 6, solvent acetone 60 ul, anti-solvent Heptane 175 ul): Cloudy
- Result ([4]; Exp. 7, acetone 60 ul / Diethyl ether 100 ul, Shaken RT, refrigerated): Soluble
- Initial result ([4]; Exp. 7, solvent acetone 60 ul, anti-solvent Diethyl ether 100 ul): Soluble
- Result ([4]; Exp. 8, acetone 60 ul / TBME 100 ul, Shaken RT, refrigerated): Soluble
- Initial result ([4]; Exp. 8, solvent acetone 60 ul, anti-solvent TBME 100 ul): Soluble
- Result: crystalline form obtained (XRPD) ([4]; Exp. 9, chloroform 60 ul / Toluene 100 ul): Pattern 9
- Result ([4]; Exp. 9, chloroform 60 ul / Toluene 100 ul, Shaken RT, solid XRPD): Crystalline
- Initial result ([4]; Exp. 9, solvent chloroform 60 ul, anti-solvent Toluene 100 ul): Precipitate
- Result: crystalline form obtained (XRPD) ([4]; Exp. 10, chloroform 60 ul / Heptane 25 ul): Pattern 8
- Result ([4]; Exp. 10, chloroform 60 ul / Heptane 25 ul, Shaken RT, solid XRPD): Crystalline
- Initial result ([4]; Exp. 10, solvent chloroform 60 ul, anti-solvent Heptane 25 ul): Precipitate
- Result ([4]; Exp. 11, chloroform 60 ul / Diethyl ether 100 ul, Shaken RT, refrigerated): Soluble
- Initial result ([4]; Exp. 11, solvent chloroform 60 ul, anti-solvent Diethyl ether 100 ul): Soluble
- Result ([4]; Exp. 12, chloroform 60 ul / TBME 100 ul, Shaken RT, refrigerated): Soluble
- Initial result ([4]; Exp. 12, solvent chloroform 60 ul, anti-solvent TBME 100 ul): Soluble
- Result: crystalline form obtained (XRPD) ([4]; Exp. 13, DCM 80 ul / Toluene 100 ul): Pattern 9
- Result ([4]; Exp. 13, DCM 80 ul / Toluene 100 ul, Shaken RT, solid XRPD): Crystalline
- Initial result ([4]; Exp. 13, solvent DCM 80 ul, anti-solvent Toluene 100 ul): Precipitate
- Result ([4]; Exp. 14 (second line so numbered), DCM 80 ul / Diethyl ether 100 ul, Shaken RT, refrigerated): Soluble
- Initial result ([4]; Exp. 14 (second line so numbered), solvent DCM 80 ul, anti-solvent Diethyl ether 100 ul): Soluble
- Result: crystalline form obtained (XRPD) ([4]; Exp. 14, DCM 80 ul / Heptane 50 ul): Pattern 8
- Result ([4]; Exp. 14, DCM 80 ul / Heptane 50 ul, Shaken RT, solid XRPD): Crystalline
- Initial result ([4]; Exp. 14, solvent DCM 80 ul, anti-solvent Heptane 50 ul): Precipitate
- Result ([4]; Exp. 16, DCM 80 ul / TBME 100 ul, Shaken RT, refrigerated): Soluble
- Initial result ([4]; Exp. 16, solvent DCM 80 ul, anti-solvent TBME 100 ul): Soluble
- Result: crystalline form obtained (XRPD) ([4]; Exp. 18, ethyl acetate 60 ul / Heptane 100 ul): Pattern 11
- Result ([4]; Exp. 18, ethyl acetate 60 ul / Heptane 100 ul, Oil, then solid formed): Crystalline
- Initial result ([4]; Exp. 18, solvent ethyl acetate 60 ul, anti-solvent Heptane 100 ul): Cloudy
- Result ([4]; Exp. 19, ethyl acetate 60 ul / Diethyl ether 100 ul, Shaken RT, refrigerated): Soluble
- Initial result ([4]; Exp. 19, solvent ethyl acetate 60 ul, anti-solvent Diethyl ether 100 ul): Soluble
- Result ([4]; Exp. 20, ethyl acetate 60 ul / TBME 100 ul, Shaken RT, refrigerated): Soluble
- Initial result ([4]; Exp. 20, solvent ethyl acetate 60 ul, anti-solvent TBME 100 ul): Soluble
- Result ([4]; Exp. 21, ethyl acetate 60 ul / Pentane 225 ul, notes: Oil): Oil
- Initial result ([4]; Exp. 21, solvent ethyl acetate 60 ul, anti-solvent Pentane 225 ul): Cloudy
- Result ([4]; Exp. 22, ethyl acetate 60 ul / cyclohexane 350 ul, Shaken RT, solid XRPD): Crystalline,
- Initial result ([4]; Exp. 22, solvent ethyl acetate 60 ul, anti-solvent cyclohexane 350 ul): Precipitate
- Result ([4]; Exp. 23, ethyl acetate 60 ul / methylcyclohexane 325 ul, Shaken RT, solid XRPD): Crystalline,
- Initial result ([4]; Exp. 23, solvent ethyl acetate 60 ul, anti-solvent methylcyclohexane 325 ul): Precipitate
- Result ([4]; Exp. 24, chloroform 60 ul / Pentane 75 ul, Shaken RT, solid XRPD): Crystalline
- Initial result ([4]; Exp. 24, solvent chloroform 60 ul, anti-solvent Pentane 75 ul): Precipitate
- Result ([4]; Exp. 25, chloroform 60 ul / cyclohexane 125 ul, Shaken RT, solid XRPD): Crystalline
- Initial result ([4]; Exp. 25, solvent chloroform 60 ul, anti-solvent cyclohexane 125 ul): Precipitate
- Result ([4]; Exp. 26, chloroform 60 ul / methylcyclohexane 75 ul, Shaken RT, solid XRPD): Crystalline
- Initial result ([4]; Exp. 26, solvent chloroform 60 ul, anti-solvent methylcyclohexane 75 ul): Precipitate
- Result ([4]; Exp. 27, DCM 80 ul / Pentane 100 ul, Shaken RT, solid XRPD): Crystalline
- Initial result ([4]; Exp. 27, solvent DCM 80 ul, anti-solvent Pentane 100 ul): Precipitate
- Result ([4]; Exp. 28, DCM 80 ul / cyclohexane 50 ul, Shaken RT, solid XRPD): Crystalline
- Initial result ([4]; Exp. 28, solvent DCM 80 ul, anti-solvent cyclohexane 50 ul): Precipitate
- Result ([4]; Exp. 29, DCM 80 ul / methylcyclohexane 50 ul, Shaken RT, solid XRPD): Crystalline
- Initial result ([4]; Exp. 29, solvent DCM 80 ul, anti-solvent methylcyclohexane 50 ul): Precipitate
- Result ([4]; Exp. number not given, ethyl acetate 60 ul / Toluene 100 ul, Shaken RT, refrigerated): Soluble
- Initial result ([4]; Exp. number not given, solvent ethyl acetate 60 ul, anti-solvent Toluene 100 ul): Soluble
- solubility at 24 h ([5]; fasted simulated gastric fluid (FaSSGF), fassgf or other biorelevant, fasted simulated gastric fluid, read-out: FaSSGF solubility after 24 h): 16.8 mg/mL (≈ 73.3 mM)
- solubility at 24 h ([5]; fasted simulated intestinal fluid (FaSSIF), fassif, fasted simulated intestinal fluid, read-out: FaSSIF solubility after 24 h): 14.1 mg/mL (≈ 61.2 mM)
- 1H NMR post storage at 40° C./75% RH for 7 days ([6]; 40° C./75% RH): Consistent with structure
- UPLC purity post storage at 40° C./75% RH for 7 days ([6]; 40° C./75% RH, initial UPLC purity 98.6%): 97.4%
- XRPD post storage at 40° C./75% RH for 7 days (change in form) ([6]; 40° C./75% RH, listed as Pattern 1): no morphological change
- 1H NMR purity post storage at RT/97% RH for 7 days ([6]; RT/97% RH): Consistent with structure
- UPLC purity post storage at RT/97% RH for 7 days ([6]; RT/97% RH, initial UPLC purity 98.6%): 97.7%
- XRPD post storage at RT/97% RH for 7 days (change in form) ([6]; RT/97% RH, listed as Pattern 1): no morphological change
SMILES: C[C@H](OC(N)=O)[C@@H](O)c1ccccc1Cl [ED01748-006-001-00, 1-(2-chlorophenyl)-(S)-1-hydroxypropyl-(S)-2-carbamate]
- XRPD post GVS (change in form) ([3]; after GVS experiment): no change in morphology; also recorded: Shows no change in form by XRPD post GVS
- XRPD post storage at 40° C./75% RH for 7 days (change in form) ([6]; 40° C./75% RH): no change in morphology; also recorded: Shows no change in form by XRPD post storage
- XRPD post storage at RT/97% RH for 7 days (change in form) ([6]; RT/97% RH): no change in morphology; also recorded: Shows no change in form by XRPD post storage
- Relative thermodynamic stability ([7]; conclusion including heptane slurries, room temperature and 50° C., 25 days): more thermodynamically stable than Pattern 11 and Pattern 6
- Relative thermodynamic stability ([7]; in DIPE at room temperature and 50° C., after 1 day): more thermodynamically stable than Pattern 3, Pattern 6 and Pattern 11
